Data reported in US20260240858A1, “ORAL FORMULATIONS, METHODS OF MANUFACTURE AND USES THEREOF” (Agency For Science, Technology And Research, priority 2019, published 2026).
Like-named read-outs stand apart in the source and are kept apart here.

Key:
[1] = Solubility of compound of Formula (I) in water, buffers and surfactant solutions; assay type: physicochemical
Description: In water, compound of Formula (I) has a solubility of about 6 μg/mL. At pH 6, the solubility is about 5 μg/mL.

[2] = Degradation in water with and without SLS; assay type: physicochemical; settings: after 24 h at 25° C.
[3] = Permeability of compound of Formula (I)
[4] = Flow properties (bulk density, tapped density, Carr's index); assay type: physicochemical; settings: API alone
Description: Magnesium stearate was included to prevent sticking of the blend to the encapsulator contact parts (Torpac).

[5] = Particle size by dynamic light scattering; assay type: physicochemical
Moisture sorption = assay type: physicochemical; settings: at above 90% RH

- solubility ([1]; 2% w/v SLS in water, pH 8.82, aqueous with cosolvent or surfactant or cyclodextrin, thermodynamic from solid, 2% w/v SLS is water, pH after equilibration 8.82, read-out: Solubility Sample-1): 458 µg/mL
- solubility ([1]; 2% w/v SLS in water, pH 8.82, aqueous with cosolvent or surfactant or cyclodextrin, thermodynamic from solid, 2% w/v SLS is water, pH after equilibration 8.82, read-out: Solubility Sample-2): 429 µg/mL
- solubility ([1]; 2% w/v Tween 80 in pH 3.0 buffer, pH 3, aqueous with cosolvent or surfactant or cyclodextrin, thermodynamic from solid, 2% w/v Tween 80 in pH 3.0 buffer, pH after equilibration 3.16, read-out: Solubility Average (n = 2)): 25.2 µg/mL
- solubility ([1]; 2% w/v Tween 80 in pH 3.0 buffer, pH 3, aqueous with cosolvent or surfactant or cyclodextrin, thermodynamic from solid, 2% w/v Tween 80 in pH 3.0 buffer, pH after equilibration 3.16, read-out: Solubility Sample-1): 23.8 µg/mL
- solubility ([1]; 2% w/v Tween 80 in pH 3.0 buffer, pH 3, aqueous with cosolvent or surfactant or cyclodextrin, thermodynamic from solid, 2% w/v Tween 80 in pH 3.0 buffer, pH after equilibration 3.16, read-out: Solubility Sample-2): 26.7 µg/mL
- solubility ([1]; 2% w/v Tween 80 in water, pH 7.72, aqueous with cosolvent or surfactant or cyclodextrin, thermodynamic from solid, 2% w/v Tween 80 in water, pH after equilibration 7.72, read-out: Solubility Average (n = 2)): 22.8 µg/mL
- solubility ([1]; 2% w/v Tween 80 in water, pH 7.72, aqueous with cosolvent or surfactant or cyclodextrin, thermodynamic from solid, 2% w/v Tween 80 in water, pH after equilibration 7.72, read-out: Solubility Sample-1): 22.4 µg/mL
- solubility ([1]; 2% w/v Tween 80 in water, pH 7.72, aqueous with cosolvent or surfactant or cyclodextrin, thermodynamic from solid, 2% w/v Tween 80 in water, pH after equilibration 7.72, read-out: Solubility Sample-2): 23.2 µg/mL
- solubility ([1]; 5% w/v PVP K 30 in pH 1.2 buffer, pH 1.2, aqueous with cosolvent or surfactant or cyclodextrin, thermodynamic from solid, 5% w/v PVP K 30 in pH 1.2 buffer, pH after equilibration 1.25, read-out: Solubility Average (n = 2)): 35 µg/mL
- solubility ([1]; 5% w/v PVP K 30 in pH 1.2 buffer, pH 1.2, aqueous with cosolvent or surfactant or cyclodextrin, thermodynamic from solid, 5% w/v PVP K 30 in pH 1.2 buffer, pH after equilibration 1.25, read-out: Solubility Sample-1): 34.8 µg/mL
- solubility ([1]; 5% w/v PVP K 30 in pH 1.2 buffer, pH 1.2, aqueous with cosolvent or surfactant or cyclodextrin, thermodynamic from solid, 5% w/v PVP K 30 in pH 1.2 buffer, pH after equilibration 1.25, read-out: Solubility Sample-2): 35.2 µg/mL
- solubility ([1]; 5% w/v PVP K 30 in pH 3.0 buffer, pH 3, aqueous with cosolvent or surfactant or cyclodextrin, thermodynamic from solid, 5% w/v PVP K 30 in pH 3.0 buffer, pH after equilibration 3.12, read-out: Solubility Average (n = 2)): 17.9 µg/mL
- solubility ([1]; 5% w/v PVP K 30 in pH 3.0 buffer, pH 3, aqueous with cosolvent or surfactant or cyclodextrin, thermodynamic from solid, 5% w/v PVP K 30 in pH 3.0 buffer, pH after equilibration 3.12, read-out: Solubility Sample-1): 19.9 µg/mL
- solubility ([1]; 5% w/v PVP K 30 in pH 3.0 buffer, pH 3, aqueous with cosolvent or surfactant or cyclodextrin, thermodynamic from solid, 5% w/v PVP K 30 in pH 3.0 buffer, pH after equilibration 3.12, read-out: Solubility Sample-2): 15.8 µg/mL
- solubility ([1]; 5% w/v PVP K 30 in water, pH 3.96, aqueous with cosolvent or surfactant or cyclodextrin, thermodynamic from solid, 5% w/v PVP K 30 in water, pH after equilibration 3.96, read-out: Solubility Average (n = 2)): 15.8 µg/mL
- solubility ([1]; 5% w/v PVP K 30 in water, pH 3.96, aqueous with cosolvent or surfactant or cyclodextrin, thermodynamic from solid, 5% w/v PVP K 30 in water, pH after equilibration 3.96, read-out: Solubility Sample-1): 18.1 µg/mL
- solubility ([1]; 5% w/v PVP K 30 in water, pH 3.96, aqueous with cosolvent or surfactant or cyclodextrin, thermodynamic from solid, 5% w/v PVP K 30 in water, pH after equilibration 3.96, read-out: Solubility Sample-2): 13.5 µg/mL
- solubility ([1]; 20% w/v SLS in pH 1.2 buffer, pH 1.2, aqueous with cosolvent or surfactant or cyclodextrin, thermodynamic from solid, 20% w/v SLSixpB 1.2 buffer, pH after equilibration 1.33, read-out: Solubility Average (n = 2)): 2020 µg/mL
- solubility ([1]; 20% w/v SLS in pH 1.2 buffer, pH 1.2, aqueous with cosolvent or surfactant or cyclodextrin, thermodynamic from solid, 20% w/v SLSixpB 1.2 buffer, pH after equilibration 1.33, read-out: Solubility Sample-1): 1860 µg/mL
- solubility ([1]; 20% w/v SLS in pH 1.2 buffer, pH 1.2, aqueous with cosolvent or surfactant or cyclodextrin, thermodynamic from solid, 20% w/v SLSixpB 1.2 buffer, pH after equilibration 1.33, read-out: Solubility Sample-2): 2170 µg/mL
- solubility ([1]; 28% w/v SLS in pH 3.0 buffer, pH 3, aqueous with cosolvent or surfactant or cyclodextrin, thermodynamic from solid, 28% w/v SL.S in pH 3.0 baffer, pH after equilibration 2.95, read-out: Solubility Average (n = 2)): 404 µg/mL
- solubility ([1]; 28% w/v SLS in pH 3.0 buffer, pH 3, aqueous with cosolvent or surfactant or cyclodextrin, thermodynamic from solid, 28% w/v SL.S in pH 3.0 baffer, pH after equilibration 2.95, read-out: Solubility Sample-1): 394 µg/mL
- solubility ([1]; 28% w/v SLS in pH 3.0 buffer, pH 3, aqueous with cosolvent or surfactant or cyclodextrin, thermodynamic from solid, 28% w/v SL.S in pH 3.0 baffer, pH after equilibration 2.95, read-out: Solubility Sample-2): 415 µg/mL
- solubility ([1]; 29% w/v Tween 80 in pH 1.2 buffer, pH 1.2, aqueous with cosolvent or surfactant or cyclodextrin, thermodynamic from solid, 29% w/v Tween 80 in pH 1.2 buffer, pH after equilibration 1.25, read-out: Solubility Average (n = 2)): 37.2 µg/mL
- solubility ([1]; 29% w/v Tween 80 in pH 1.2 buffer, pH 1.2, aqueous with cosolvent or surfactant or cyclodextrin, thermodynamic from solid, 29% w/v Tween 80 in pH 1.2 buffer, pH after equilibration 1.25, read-out: Solubility Sample-1): 37.3 µg/mL
- solubility ([1]; 29% w/v Tween 80 in pH 1.2 buffer, pH 1.2, aqueous with cosolvent or surfactant or cyclodextrin, thermodynamic from solid, 29% w/v Tween 80 in pH 1.2 buffer, pH after equilibration 1.25, read-out: Solubility Sample-2): 37.1 µg/mL
- solubility ([1]; 50% w/v Poloxamer 188 in pH 1.2 buffer, pH 1.2, aqueous with cosolvent or surfactant or cyclodextrin, thermodynamic from solid, 50% w/v Poloxamer 188 in pH 1.2 buffer, pH after equilibration 1.25, read-out: Solubility Average (n = 2)): 35.5 µg/mL
- solubility ([1]; 50% w/v Poloxamer 188 in pH 1.2 buffer, pH 1.2, aqueous with cosolvent or surfactant or cyclodextrin, thermodynamic from solid, 50% w/v Poloxamer 188 in pH 1.2 buffer, pH after equilibration 1.25, read-out: Solubility Sample-1): 35.6 µg/mL
- solubility ([1]; 50% w/v Poloxamer 188 in pH 1.2 buffer, pH 1.2, aqueous with cosolvent or surfactant or cyclodextrin, thermodynamic from solid, 50% w/v Poloxamer 188 in pH 1.2 buffer, pH after equilibration 1.25, read-out: Solubility Sample-2): 35.4 µg/mL
- solubility ([1]; 50% w/v Poloxamer 188 in water, pH 7.23, aqueous with cosolvent or surfactant or cyclodextrin, thermodynamic from solid, 50% w/v Poloxamer 188 in water, pH after equilibration 7.23, read-out: Solubility Average (n = 2)): 9.63 µg/mL
- solubility ([1]; 50% w/v Poloxamer 188 in water, pH 7.23, aqueous with cosolvent or surfactant or cyclodextrin, thermodynamic from solid, 50% w/v Poloxamer 188 in water, pH after equilibration 7.23, read-out: Solubility Sample-1): 10.9 µg/mL
- solubility ([1]; 50% w/v Poloxamer 188 in water, pH 7.23, aqueous with cosolvent or surfactant or cyclodextrin, thermodynamic from solid, 50% w/v Poloxamer 188 in water, pH after equilibration 7.23, read-out: Solubility Sample-2): 8.39 µg/mL
- solubility ([1]; 59% w/v Poloxamer 188 in pH 3.0 buffer, pH 3, aqueous with cosolvent or surfactant or cyclodextrin, thermodynamic from solid, 59% w/v Poloxamer 188 in pH 3.0 buffer, pH after equilibration 3.30, read-out: Solubility Average (n = 2)): 18.3 µg/mL
- solubility ([1]; 59% w/v Poloxamer 188 in pH 3.0 buffer, pH 3, aqueous with cosolvent or surfactant or cyclodextrin, thermodynamic from solid, 59% w/v Poloxamer 188 in pH 3.0 buffer, pH after equilibration 3.30, read-out: Solubility Sample-1): 18.7 µg/mL
- solubility ([1]; 59% w/v Poloxamer 188 in pH 3.0 buffer, pH 3, aqueous with cosolvent or surfactant or cyclodextrin, thermodynamic from solid, 59% w/v Poloxamer 188 in pH 3.0 buffer, pH after equilibration 3.30, read-out: Solubility Sample-2): 17.9 µg/mL
- solubility ([1]; citrate buffer, pH 3, aqueous buffer, thermodynamic from solid, pH 3.0 (Citrate buffer), read-out: Solubility Average (n = 2)): 7.77 µg/mL
- solubility ([1]; citrate buffer, pH 3, aqueous buffer, thermodynamic from solid, pH 3.0 (Citrate buffer), read-out: Solubility Sample-1): 7.76 µg/mL
- solubility ([1]; citrate buffer, pH 3, aqueous buffer, thermodynamic from solid, pH 3.0 (Citrate buffer), read-out: Solubility Sample-2): 7.78 µg/mL
- solubility ([1]; hydrochloric acid buffer, pH 1.2, simulated gastric fluid, thermodynamic from solid, pH 1.2 (Hydrochloric acid buffer), read-out: Solubility Average (n = 2)): 20.8 µg/mL
- solubility ([1]; hydrochloric acid buffer, pH 1.2, simulated gastric fluid, thermodynamic from solid, pH 1.2 (Hydrochloric acid buffer), read-out: Solubility Sample-1): 20.8 µg/mL
- solubility ([1]; hydrochloric acid buffer, pH 1.2, simulated gastric fluid, thermodynamic from solid, pH 1.2 (Hydrochloric acid buffer), read-out: Solubility Sample-2): 20.9 µg/mL
- solubility ([1]; pH 2, simulated gastric fluid, At pH 2, read-out: solubility): ~8.4 µg/mL
- solubility ([1]; pH 4, aqueous buffer, At pH 4, read-out: solubility): ~6.4 µg/mL
- solubility ([1]; pH 6, aqueous buffer, At pH 6, read-out: solubility): ~5 µg/mL
- solubility ([1]; water, In water, read-out: solubility): ~6 µg/mL
- solubility ([1]; water, in water, read-out: solubility): < 6 µg/mL
- solubility ([1]; water, pH 7.95, water, thermodynamic from solid, Water, pH after equilibration 7.95, read-out: Solubility Average (n = 2)): 5.99 µg/mL
- solubility ([1]; water, pH 7.95, water, thermodynamic from solid, Water, pH after equilibration 7.95, read-out: Solubility Sample-1): 6 µg/mL
- solubility ([1]; water, pH 7.95, water, thermodynamic from solid, Water, pH after equilibration 7.95, read-out: Solubility Sample-2): 5.97 µg/mL
- degradation ([2]; In water): about 40%
- degradation ([2]; water with 2% w/v SLS): no (or minimal) degradation
- permeability [3]: low
- flow properties of the API [4]: poor flow properties
- d10 [5]: 2-5 μm
- d50 [5]: 10-30 μm
- d90 [5]: 35-55 μm
- water uptake (Moisture sorption): about 1%
SMILES: Cn1c(=O)c2c(ncn2CC(=O)Nc2ccc(-c3ccccc3)nn2)n(C)c1=O [compound of Formula (I)]
